Results from patent US20100160207A1, “Feedback Prodrug” (University of Georgia Research Foundation, Inc., priority 2006, published 2010).

Columns and labels:
[1] = biological target: T1, drosophila Golgi α-mannosidase II (dGMII) (Drosophila melanogaster, UniProt Q24451); test: Affinity of N-benzyl mannostatin for Golgi α-mannosidase II; type: binding
T1 sequence (Q24451 1-1108): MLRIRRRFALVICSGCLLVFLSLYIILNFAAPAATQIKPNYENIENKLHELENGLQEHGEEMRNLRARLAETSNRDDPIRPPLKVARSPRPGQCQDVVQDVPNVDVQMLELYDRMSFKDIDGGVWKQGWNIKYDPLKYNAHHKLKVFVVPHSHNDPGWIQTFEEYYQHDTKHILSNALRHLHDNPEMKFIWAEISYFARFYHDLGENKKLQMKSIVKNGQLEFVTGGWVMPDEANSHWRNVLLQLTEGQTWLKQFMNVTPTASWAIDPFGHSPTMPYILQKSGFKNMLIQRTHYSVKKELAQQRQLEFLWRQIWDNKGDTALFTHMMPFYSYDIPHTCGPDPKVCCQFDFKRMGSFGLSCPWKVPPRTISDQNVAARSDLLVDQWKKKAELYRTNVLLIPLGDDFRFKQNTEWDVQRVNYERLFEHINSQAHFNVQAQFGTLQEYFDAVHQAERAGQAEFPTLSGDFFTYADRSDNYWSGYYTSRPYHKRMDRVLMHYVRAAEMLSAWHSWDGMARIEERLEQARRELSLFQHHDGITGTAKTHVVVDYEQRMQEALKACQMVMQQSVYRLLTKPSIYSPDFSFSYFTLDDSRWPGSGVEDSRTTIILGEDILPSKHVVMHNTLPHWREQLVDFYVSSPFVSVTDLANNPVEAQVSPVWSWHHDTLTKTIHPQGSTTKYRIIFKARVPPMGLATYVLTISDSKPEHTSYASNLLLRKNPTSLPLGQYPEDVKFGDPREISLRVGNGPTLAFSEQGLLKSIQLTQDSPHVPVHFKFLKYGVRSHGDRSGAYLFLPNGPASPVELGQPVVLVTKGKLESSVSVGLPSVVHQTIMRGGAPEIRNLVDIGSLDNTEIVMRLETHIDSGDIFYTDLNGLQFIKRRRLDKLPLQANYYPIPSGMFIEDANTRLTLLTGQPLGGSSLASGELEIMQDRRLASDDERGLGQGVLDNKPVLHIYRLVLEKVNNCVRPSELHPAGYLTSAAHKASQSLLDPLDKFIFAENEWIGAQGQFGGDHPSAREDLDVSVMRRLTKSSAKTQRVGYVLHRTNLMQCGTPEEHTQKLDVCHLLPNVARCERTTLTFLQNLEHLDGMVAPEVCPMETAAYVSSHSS
Description: The finding was ultimately explained by careful examination of the crystal structure of dGMII with the synthetic inhibitor; see Kawatkar et al., J. Am. Chem. Soc., 128, 8310-8319 (2006).

[2] = Stability measurements in deuterated sodium acetate buffer by 1H NMR; type: physicochemical; details: 0.4 mM, sodium acetate buffer pH 4.0, 37° C., 6 days
Experimental: Stability measurements. A solution of compound 1 or 2 (0.4 mM) in deuterated sodium acetate buffer (100 mM; pH 4.0; 0.2 ml) in a NMR tube was incubated at 37° C. for 6 days. ^1H NMR spectra were recorded every day.

α-galactosidase = test: Negative enzyme control experiment, α-galactosidase; type: biochemical; details: 0.1 Unit, MES buffer pH 6.5, 37° C., 20 h
Experimental: (§1) Compounds 1 and 2 were subjected to an α-glucosidase, α-fucosidase and α-galactosidase.
(§2) Negative enzyme control experiments. A solution of compound 1 or 2 (0.004 mmol) and α-glucosidase, α-galactosidase or α-L-fucosidase (0.1 Unit) in MES buffer (0.05 M; pH 6.8 for α-glucosidase, pH 6.5 for α-galactosidase or pH 5.5 for α-L-fucosidase; 1 ml) was incubated at 37° C. for 20 h, after which the reaction mixture was freezing-dried, and the solid residue was analyzed by ^1H NMR spectrometry and mass spectrometry.

[3] = biological target: T2, human lysosomal mannosidase (HLM) (Homo sapiens, UniProt O00754); test: Enzymatic cleavage of prodrugs by human lysosomal mannosidase monitored by 1H NMR; type: biochemical; details: HLM 20 mU, 80 nmol compound, sodium acetate buffer pH 5.6, 37° C.
T2 sequence (O00754 50-1011): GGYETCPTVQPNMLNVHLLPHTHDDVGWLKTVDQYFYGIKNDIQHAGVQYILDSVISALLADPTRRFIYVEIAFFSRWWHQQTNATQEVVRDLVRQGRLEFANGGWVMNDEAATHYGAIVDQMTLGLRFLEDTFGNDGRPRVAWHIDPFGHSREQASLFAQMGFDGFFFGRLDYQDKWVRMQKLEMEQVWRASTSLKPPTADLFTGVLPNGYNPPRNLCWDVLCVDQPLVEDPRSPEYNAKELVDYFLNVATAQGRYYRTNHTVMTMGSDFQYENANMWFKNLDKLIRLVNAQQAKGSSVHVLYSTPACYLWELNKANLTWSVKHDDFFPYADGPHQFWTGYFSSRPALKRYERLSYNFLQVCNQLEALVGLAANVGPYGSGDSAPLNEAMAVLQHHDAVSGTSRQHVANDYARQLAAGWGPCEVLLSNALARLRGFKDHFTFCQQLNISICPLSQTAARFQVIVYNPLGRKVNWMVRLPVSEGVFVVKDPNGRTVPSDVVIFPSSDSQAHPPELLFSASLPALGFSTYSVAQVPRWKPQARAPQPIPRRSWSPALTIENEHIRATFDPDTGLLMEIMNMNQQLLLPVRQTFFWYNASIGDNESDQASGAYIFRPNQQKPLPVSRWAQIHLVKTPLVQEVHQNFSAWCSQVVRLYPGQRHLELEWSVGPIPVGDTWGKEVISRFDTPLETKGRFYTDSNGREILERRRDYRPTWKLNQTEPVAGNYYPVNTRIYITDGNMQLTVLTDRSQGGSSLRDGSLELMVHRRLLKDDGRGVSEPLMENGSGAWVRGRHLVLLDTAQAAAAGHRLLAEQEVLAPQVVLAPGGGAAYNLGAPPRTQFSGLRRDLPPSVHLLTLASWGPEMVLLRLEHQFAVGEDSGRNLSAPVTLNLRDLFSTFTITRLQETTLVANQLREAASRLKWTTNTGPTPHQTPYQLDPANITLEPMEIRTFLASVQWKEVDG
Experimental: HLM ([…]) was added to a solution of 2 (a) or 1 (b) ([…]) in a deuterated sodium acetate buffer (100 mM, pH, 5.6, 0.2 mL) and the enzymatic cleavage was monitored by ^1H NMR (600 MHz).
The enzymatic cleavage of 1 and 2 by human lysosomal mannosidase (HLM) was monitored by ^1H NMR (600 MHz) (Wilson et al., Org. Lett. 1999, 1, 443) Thus, HLM (20 mU) was added to a solution of 1 or 2 (80 nmol) dissolved in a deuterated sodium acetate buffer (100 mM, pH 5.6, 0.2 mL). The progress of the reaction was monitored by the integration of key signals of the starting material, the intermediate and final product. […] In this case, the released mannostatin A (5) inhibits HLM terminating further hydrolysis of 1. Mannostatin A is a potent inhibitor of retaining α-mannosidases (Ki=90 nM, HLM) (Li et al., Chem. Bio. Chem. 2004, 5, 1220) and thus the release of low concentrations of the active compound is sufficient to abolish enzyme activity.
Kinetic measurements. A solution of compound 1 or 2 (0.08 μmol) and human lysosomal mannosidase (HLM, 0.02 Unit) in deuterated sodium acetate buffer (0.1 M; pH 5.6; 0.2 ml) was incubated at 37° C., and ^1H NMR spectra (600 MHz) were recorded at different time intervals. Relevant signals were integrated to determine the rate of enzymatic hydrolysis, and the appearance of the intermediate and the final product.

α-L-fucosidase = test: Negative enzyme control experiment, α-L-fucosidase; type: biochemical; details: 0.1 Unit, MES buffer pH 5.5, 37° C., 20 h
Experimental: as §1, §2

α-glucosidase = test: Negative enzyme control experiment, α-glucosidase; type: biochemical; details: 0.1 Unit, MES buffer pH 6.8, 37° C., 20 h
Experimental: as §1, §2

[4] = Treatment with cell lysate in the presence of swainsonine and kifunensine; type: in vitro ADME

CSC1C(O)C(O)C(O)C1NCc1ccccc1 (stereo not shown) [N-benzyl mannostatin]
affinity compared with mannostatin A [1]: slightly reduced affinity

CSC1C(O)C(O)C(O)C1NC(=O)OCc1ccc(O[C@H]2O[C@H](CO)[C@@H](O)[C@H](O)[C@@H]2O)cc1 (stereo partly drawn) [Compound 1, 1D-(1,2,3,4/5)-4-[4-(α-D-mannopyranosyloxy)-benzyloxycarbonyl]amino-5-(methylsulfanyl)cyclopentane-1,2,3-triol]
decomposition in buffer [2]: No decomposition of product was observed
decomposition by α-galactosidase (α-galactosidase): No decomposition of product was observed
enzymatic hydrolysis of the prodrug by HLM [3]: virtually no hydrolysis was observed
decomposition by α-L-fucosidase (α-L-fucosidase): No decomposition of product was observed
decomposition by α-glucosidase (α-glucosidase): No decomposition of product was observed
decomposition in cell lysate [4]: did not lead to decomposition
